Assay results taken from patent publication US6855346B2, “Pharmaceutical composition having prophylactic effects on lamivudine-related disease relapse and drug resistance and methods of using the same” (priority 2001, dated 2005).
Marks after values point to notes of the source that are not given here.

What was measured:
Assay type in all cases: in vivo, human
[1] = tested on: Chronic Hepatitis B (HBV); experiment: Clinical study of YGK and lamivudine in chronic hepatitis B patients: serum biological markers (Example 6)
Procedure: Patients were randomized and divided into group A, B and C. Group A was the treatment group with 48 patients while group B with 42 patients and group C with 45 patients were positive control groups.
(§1) (2) Treatment Method • Each treatment period lasted for 4 weeks.
(§2) (1) Observe Items • (a) Hepatitis B biological markers: Serum HBV-DNA, HBeAg, Anti-Hbe, HbsAg, Anti-HBs were analyzed before treatment, at week 4, 8, 16 and 32 during treatment and at week 24 and 48 after treatment termination. • Serum HBV-DNA was measured by polymerase chain reaction (PCR) using 9600 DNA Amplification Machine (PE corp., USA) and reagents from E-li-kang Biotech. Corp., Zhejiang, Wenzhou, China. Serum HBeAg, anti-HBe, HBsAg, and Anti-HBs were determined by the Imx method using Automatic Quick Micro Immune Analytic Instrument and reagents from Abbott Laboratories, USA. • (b) Hepatic functions: ALT was monitored at week 4, 8, 16 and 32 during treatment and at week 24 and 48 after treatment termination. • (c) Adverse effects: Patients were constantly monitored by the medical staff for adverse effect throughout the treatment periods.
Data obtained at weeks 4, 8, 16, and 32 during treatment and at weeks 24 and 48 after treatment termination were analyzed by Chi-square (X^2) and t-test. The statistical results obtained were used to evaluate the therapeutic effects.

[2] = tested on: ALT; experiment: Clinical study of YGK and lamivudine in chronic hepatitis B patients: hepatic function (ALT)
Procedure: (§3) A total of 135 patients who met the criteria were included in this study. Patients were randomized and divided into group A, B and C. Group A was the treatment group with 48 patients while group B with 42 patients and group C with 45 patients were positive control groups.
as §1, §2
Data obtained at weeks 4, 8, 16, and 32 during treatment and at weeks 24 and 48 after treatment termination were analyzed by Chi-square (X^2) and t-test. […]

[3] = Clinical study of YGK and lamivudine in chronic hepatitis B patients: adverse effects; conditions: after 16 weeks of treatment, of 42 patients; disappeared after 2 more weeks
Procedure: as §3, §1, §2

[4] = number of patients after 4 weeks of treatment
[5] = number of patients after 8 weeks of treatment
[6] = number of patients after 16 weeks of treatment
[7] = number of patients after 32 weeks of treatment
[8] = number of patients at week 24 after treatment termination
[9] = number of patients at week 48 after treatment termination

Structure (SMILES): Nc1ccn([C@@H]2CS[C@H](CO)O2)c(=O)n1 [lamivudine, (2R, cis)-4-amino-1-(2-hydroxmethyl-1,3-oxathiolan-5-yl)-(1H)-pyrimidin-2-one]
- HBeAg seroconversion ([1]; after 16 weeks of treatment): 4.8%
- patients with negative HBV DNA ([1]; after 16 weeks of treatment): 61.9%
- HBV DNA negative conversion ([1]; after 32 weeks of treatment): 90.5%
- HBeAg seroconversion ([1]; after 32 weeks of treatment): 9.5%
- rate for patients turning negative in HBeAg ([1]; after lamivudine treatment): 9.5%
- Seroconversion of HBeAg [1, 4]: 0**
- Seroconversion of HBsAg [1, 4]: 0
- Seroconversion of anti-Hbe [1, 4]: 0**
- Seroconversion of Anti-HBs [1, 5]: 0
- Seroconversion of HBeAg [1, 5]: 0**
- Seroconversion of HBsAg [1, 5]: 0**
- Seroconversion of anti-HBe [1, 5]: 0**
- Seroconversion of Anti-HBs [1, 6]: 0
- Seroconversion of HBeAg [1, 6]: 2**
- Seroconversion of HBsAg [1, 6]: 0**
- Seroconversion of anti-HBe [1, 6]: 0**
- Seroconversion of Anti-HBs [1, 7]: 1
- Seroconversion of HBeAg [1, 7]: 4**
- Seroconversion of HBsAg [1, 7]: 1**
- Seroconversion of anti-HBe [1, 7]: 4**
- Seroconversion of Anti-HBs 24W [1, 8]: 1**
- Seroconversion of HBeAg 24W [1, 8]: 4**
- Seroconversion of HBsAg 24W [1, 8]: 1**
- Seroconversion of anti-HBe 24W [1, 8]: 4**
- Seroconversion of Anti-HBs 48W [1, 9]: 0**
- Seroconversion of HBeAg 48W [1, 9]: 0**
- Seroconversion of HBsAg 48W [1, 9]: 0**
- Seroconversion of anti-HBe 48W [1, 9]: 0**
- patients relapsed to positive for HBV DNA ([1]; of the 38 patients HBV DNA negative during treatment, week 48 after treatment termination): 12
- overall HBV DNA seroconversion rate ([1]; week 48 after treatment termination): 61.9%
- patients with normal ALT ([2]; after 4 weeks of treatment): 66.6%
- patients with normal ALT [2, 4]: 28**
- patients showing adverse effects (anorexia, abdominal discomfort, fluctuating ALT levels) [3]: 8
